Data from patent US5780505A, “Substituted N-arylmethylamino derivatives of cyclobutene-3, 4-diones” (American Home Products Corporation, priority 1997, dated 1998).

System: Isolated Rat Bladder Strips
Experiment: Inhibition of contractions in isolated rat bladder strips (KCl-enhanced contractile activity; smooth muscle relaxation)
Assay type: cell-based, Sprague-Dawley rats
Settings: 0.5 h; isolated rat bladder strips, 15 mM additional KCl, 30 minute challenge; read-out: IC50 (50% inhibition of pre-drug contractile activity)
Text: The smooth muscle relaxing activity of the compounds of this invention was established in accordance with standard pharmaceutically accepted test procedures with representative compounds as follows:
Sprague-Dawley rats (150-200 g) are rendered unconscious by CO2 asphyxiation and then euthanized by cervical dislocation. The bladder is removed into warm (37 deg.C) physiological salt solution (PSS) of the following composition (mM): NaCl, 118.4; KCl, 4.7; CaCl2, 2.5; MgSO4, 4.7; H2 O, 1,2; NaHCO3, 24.9; KH2 PO4, 1,2; glucose, 11.1; EDTA, 0.023; gassed with […]; pH 7.4. The bladder is opened and then dut into strips 1-2 mm in width and 7-10 mm in length. The strips are subsequently suspended in a 10 mL tissue bath under an initial resting tension of 1.5 g. The strips are held in place by two surgical clips one of which is attached to a fixed hook while the other is attached to an isometric force transducer. […] The carbachol is then washed out and the tissue allowed to relax to its resting level of activity. Following a further 30 min period of recovery an additional 15 mM KCl are introduced into the tissue bath. This increase in KCl concentration results in a large increase in the amplitude of spontaneous contractions (and initiation of contractions in previously quiescent strips) superimposed upon a small increase in basal tone. Following stabilization of this enhanced level of contractile activity, incremental increases in the concentration of test compound or vehicle are introduced into the tissue bath. Contractile activity is measured for each compound or vehicle concentration during the last minute of a 30 minute challenge.
The isometric force developed by the bladder strips is measured using a […] to elicit 50% inhibition of pre-drug contractile activity (IC50 concentration) and is calculated from this concentration-response curve.

Row | Compound | IC50
1 | CCC(C)(C)Nc1c(NCc2c(Cl)cccc2Cl)c(=O)c1=O [Example 4, 3-(2,6-Dichloro-benzylamino)-4-(1,1-dimethyl-propylamino)-cyclobut-3-ene-1,2-dione] | 280 ± 30 nM
2 | CCC(C)(C)Nc1c(NCc2cc(C)cc(C#N)c2)c(=O)c1=O [Example 7, 3-([2-(1,1-Dimethyl-propylamino)-3,4-dioxo-cyclobut-1-enylamino]-methyl)-5-methyl-benzonitrile] | 860 ± 270 nM
3 | Cc1cc(C)c(CNc2c(NC(C)(C)C)c(=O)c2=O)c(C)c1 [Example 9, 3-tert-Butylamino-4-(2,4,6-trimethyl-benzylamino)-cyclobut-3-ene-1,2-dione] | 1800 ± 700 nM
4 | CC(C)(C)Nc1c(NCc2c(Cl)cccc2Cl)c(=O)c1=O [Example 10, 3-tert-Butylamino-4-(2,6-dichloro-benzylamino)-cyclobut-3-ene-1,2-dione] | 1110 ± 410 nM
5 | Cc1cc(C#N)cc(CNc2c(NC(C)C(C)(C)C)c(=O)c2=O)c1 (stereo not shown) [Example 12, 3-{[3,4-Dioxo-2-(1,2,2-trimethyl-propylamino)-cyclobut-1-enylamino]-methyl}-5-methyl-benzonitrile] | 6600 ± 1600 nM
6 | COc1cc(OC)c(CNc2c(NC(C)(C)C)c(=O)c2=O)c(OC)c1 [Example 15, 3-tert-Butylamino-4-(2,4,6-trimethoxy-benzylamino)-cyclobut-3-ene-1,2-dione] | 11100 ± 400 nM
7 | Cc1cc(C#N)cc(CNc2c(NC(C)(C)C)c(=O)c2=O)c1 [Example 16, 3-[(2-tert-Butylamino-3,4-dioxo-cyclobut-1-enylamino)-methyl]-5-methyl-benzonitrile] | 2900 ± 100 nM
8 | COc1ccc(CNc2c(NC(C)(C)C)c(=O)c2=O)c(OC)c1 [Example 17, 3-tert-Butylamino-4-(2,4-dimethoxy-benzylamino)-cyclobut-3-ene-1,2-dione] | 9600 ± 5700 nM
9 | CC(C)(C)Nc1c(NCc2ccc(F)cc2F)c(=O)c1=O [Example 18, 3-tert-Butylamino-4-(2,4-difluoro-benzylamino)-cyclobut-3-ene-1,2-dione] | 2100 ± 900 nM
10 | CC(C)(C)Nc1c(NCc2c(F)cccc2F)c(=O)c1=O [Example 19, 3-tert-Butylamino-4-(2,6-difluoro-benzylamino)-cyclobut-3-ene-1,2-dione] | 7500 ± 4500 nM
11 | COc1cccc(CNc2c(NC(C)(C)C)c(=O)c2=O)c1OC [Example 20, 3-tert-Butylamino-4-(2,3-dimethoxy-benzylamino)-cyclobut-3-ene-1,2-dione] | 8600 ± 3500 nM
12 | CC(C)(C)Nc1c(NCc2cc(F)ccc2F)c(=O)c1=O [Example 21, 3-tert-Butylamino-4-(2,5-difluoro-benzylamino)-cyclobut-3-ene-1,2-dione] | 3900 ± 1100 nM
13 | COc1cc(CNc2c(NC(C)(C)C)c(=O)c2=O)cc(OC)c1 [Example 22, 3-tert-butylamino-4-(3,5-dimethoxy-benzylamino)-cyclobut-3-ene-1,2-dione] | 25000 ± 10000 nM
14 | Cc1cccc(CNc2c(NC(C)(C)C)c(=O)c2=O)c1C [Example 23, 3-tert-Butylamino-4-(2,3-dimethyl-benzylamino)-cyclobut-3-ene-1,2-dione] | 2700 ± 300 nM
15 | CCCCNc1c(NCc2ccc(C#N)cc2CC)c(=O)c1=O [Example 24, 4-[(2-Butylamino-3,4-dioxo-cyclobut-1-enylamino)-methyl]-3-ethyl-benzonitrile] | 27100 ± 4000 nM
16 | CCc1cc(C#N)ccc1CNc1c(NC(C)C)c(=O)c1=O [Example 25] | 31000 ± 4500 nM

Row | Compound | IC50
17 | CCc1cc(C#N)ccc1CNc1c(NC(CC)CC)c(=O)c1=O [Example 26] | 5200 ± 600 nM
18 | CCc1cc(C#N)ccc1CNc1c(N[C@H](C)C(C)(C)C)c(=O)c1=O [Example 28, 4-{[3,4-Dioxo-2-(1,2,2-trimethyl-propylamino)-cyclobut-1-enylamino]-methyl}-3-ethyl-benzonitrile] | 2000 ± 200 nM
19 | CCC(C)(C)Nc1c(NCc2c(C)cccc2Cl)c(=O)c1=O [Example 32, 3-(2-chloro-6-methyl-benzylamino)-4-(1,1-dimethyl-propylamino)-cyclobut-3-ene-1,2-dione] | 4350 ± 4100 nM
20 | CCC(C)(C)Nc1c(NCc2c(C)cc(C#N)cc2Cl)c(=O)c1=O [Example 33, 3-Chloro-4-{[2-(1,1-dimethyl-propylamino)-3,4-dioxo-cyclobut-1-enylamino]-methyl}-5-methyl-benzonitrile] | 160 ± 10 nM
21 | Cc1cc(C#N)cc(Cl)c1CNc1c(N[C@H](C)C(C)(C)C)c(=O)c1=O [Example 34, 3-Chloro-4-{[3,4-dioxo-2-(1,2,2-trimethyl-propylamino)-cyclobut-1-enylamino]-methyl}-5-methyl-benzonitrile] | 1900 ± 1100 nM
22 | Cc1cc(Br)cc(C)c1CNc1c(N[C@H](C)C(C)(C)C)c(=O)c1=O [Example 35, 3-(4-Bromo-2,6-dimethyl-benzylamino)-4-(1,2,2-trimethyl-propylamino)-cyclobut-3-ene-1,2-dione] | 8900 ± 3000 nM
23 | CCC(C)(C)Nc1c(NCc2c(C)cc(Br)cc2C)c(=O)c1=O [Example 37, 3-(4-Bromo-2,6-dimethyl-benzylamino)-4-(1,1-dimethyl-propylamino)-cyclobut-3-ene-1,2-dione] | 1200 ± 1100 nM
24 | Cc1cc(C)c(CNc2c(NC(C)(C)C)c(=O)c2=O)c(Cl)c1 [Example 39, 3-tert-Butylamino-4-(2-chloro-4,6-dimethyl-benzylamino)-cyclobut-3-ene-1,2-dione] | 710 ± 500 nM
25 | CCC(C)(C)Nc1c(NCc2c(C)cc(C)cc2Cl)c(=O)c1=O [Example 40, 3-(2-Chloro-4,6-dimethyl-benzylamino)-4-(1,1-dimethyl-propylamino)-cyclobut-3-ene-1,2-dione] | 200 ± 80 nM
26 | C[C@@H](Nc1c(NCc2ccc(C#N)c(Cl)c2)c(=O)c1=O)C(C)(C)C [Example 42, 2-Chloro-4-{[3,4-dioxo-2-(1,2,2-trimethyl-pronylamino)-cyclobut-1-enylamino]-methyl}-benzonitrile] | 4700 ± 1200 nM
27 | CC(C)(C)Nc1c(NCc2ccc(C#N)c(Cl)c2)c(=O)c1=O [Example 43, 4-[(2-tert-Butylamino-3,4-dioxo-cyclobut-1-enylamino)-methyl]-2-chloro-benzonitrile] | 1100 ± 100 nM
28 | CCC(C)(C)Nc1c(NCc2ccc(C#N)c(Cl)c2)c(=O)c1=O [Example 44, 2-Chloro-4-{[2-(1,1-dimethyl-propylamino]-3,4-dioxo-cyclobut-1-enylamino)-methyl}-benzonitrile] | 260 ± 15 nM
29 | CCc1cc(CNc2c(NC(C)(C)C)c(=O)c2=O)ccc1C#N [Example 46, 4-[(2-tert-Butylamino-3,4-dioxo-cyclobut-1-enylamino)-methyl]-2-ethyl-benzonitrile] | 6100 ± 3800 nM
30 | CCc1cc(Br)ccc1CNc1c(N[C@H](C)C(C)(C)C)c(=O)c1=O [Example 47, 3-(4-Bromo-2-ethyl-benzylamino)-4-(1,2,2-trimethyl-propylamino)-cyclobut-3-ene-1,2-dione] | 16700 ± 6200 nM
31 | CCc1cc(Br)ccc1CNc1c(NC(C)(C)C)c(=O)c1=O [Example 48, 3-(4-Bromo-2-ethyl-benzylamino)-4-tert-butylamino-cyclobut-3-ene-1,2-dione] | 270 ± 80 nM
32 | CCc1cc(Br)ccc1CNc1c(NC(C)(C)CC)c(=O)c1=O [Example 49, 3-(4-Bromo-2-ethyl-benzylamino)-4-(1,1-dimethyl-propylamino)-cyclobut-3-ene-1,2-dione] | 1000 ± 600 nM

Same assay, conditions: Rattus norvegicus, 0.5 h; read-out: Percent contraction at 30 μM (C)

Row | Compound | percent contraction at 30 µM
33 | CCC(CC)Nc1c(NCc2ccc(OC)c(OC)c2)c(=O)c1=O [Example 14, 3-(3,4-Dimethoxy-benzylamino)-4-(1-ethyl-propylamino)-cyclobut-3-ene-1,2-dione] | 54%
34 | Cc1cc(C)c(CNc2c(N[C@H](C)C(C)(C)C)c(=O)c2=O)c(Cl)c1 [Example 38, 3-(2-Chloro-4,6-dimethyl-benzylamino)-4-(1,2,2-trimethyl-propylamino)-cyclobut-3-ene-1,2-dione] | 200%

Same assay, conditions: Rattus norvegicus; read-out: Percent inhibition at 30 μM (I)

Row | Compound | inhibition at 30 µM
35 | Cc1cc(C#N)cc(CNc2c(NC(C)C(C)(C)C)c(=O)c2=O)c1 (stereo not shown) [Example 12, 3-{[3,4-Dioxo-2-(1,2,2-trimethyl-propylamino)-cyclobut-1-enylamino]-methyl}-5-methyl-benzonitrile] | 37 ± 0.7%
36 | CCC(CC)Nc1c(NCc2cc(C)cc(C#N)c2)c(=O)c1=O [Example 13, 3-{[2-(1-Ethyl-propylamino)-3,4-dioxo-cyclobut-1-enylamino]-methyl}-5-methyl-benzonitrile] | 19.1 ± 1.7%
37 | CCC(CC)Nc1c(NCc2ccc(OC)c(OC)c2)c(=O)c1=O [Example 14, 3-(3,4-Dimethoxy-benzylamino)-4-(1-ethyl-propylamino)-cyclobut-3-ene-1,2-dione] | 27.2 ± 2.4%
38 | Cc1cccc(Cl)c1CNc1c(N[C@H](C)C(C)(C)C)c(=O)c1=O [Example 29, 3-(2-Chloro-6-methyl-benzylamino)-4-(1,2,2-trimethyl-propylamino)-cyclobut-3-ene-1,2-dione] | 38.6 ± 3.6%
39 | Cc1cc(C)c(CNc2c(NCC(F)(F)C(F)(F)F)c(=O)c2=O)c(Cl)c1 [Example 41, 3-(2-Chloro-4,6-dimethyl-benzylamino)-4-(2,2,3,3,3-pentafluoro-propylamino)-cyclobut-3-ene-1,2-dione] | 41 ± 2.9%
40 | CCc1cc(CNc2c(N[C@H](C)C(C)(C)C)c(=O)c2=O)ccc1C#N [Example 45, 4-[{3,4-Dioxo-2-(1,2,2-trimethyl-propylamino)-cyclobut-1-enylamino]-methyl}-2-ethyl-benzonitrile] | 25 ± 2.04%
